Data published in patent publication US6610710B2, “Phenylalanine derivatives” (Ajinomoto Co., Inc., priority 1999, dated 2003).

Target: T1, integrin α4β7 (RPMI-8866 cells) binding with recombinant human VCAM-1 (Homo sapiens, UniProt P13612+P26010)
T1 construct: lymphoma cell strain RPMI-8866 of human B cells, known to express integrin α4β7; endogenous in cells; host or cells: RPMI-8866 (human B-cell lymphoma line)
T1 sequence (P13612 34-1032): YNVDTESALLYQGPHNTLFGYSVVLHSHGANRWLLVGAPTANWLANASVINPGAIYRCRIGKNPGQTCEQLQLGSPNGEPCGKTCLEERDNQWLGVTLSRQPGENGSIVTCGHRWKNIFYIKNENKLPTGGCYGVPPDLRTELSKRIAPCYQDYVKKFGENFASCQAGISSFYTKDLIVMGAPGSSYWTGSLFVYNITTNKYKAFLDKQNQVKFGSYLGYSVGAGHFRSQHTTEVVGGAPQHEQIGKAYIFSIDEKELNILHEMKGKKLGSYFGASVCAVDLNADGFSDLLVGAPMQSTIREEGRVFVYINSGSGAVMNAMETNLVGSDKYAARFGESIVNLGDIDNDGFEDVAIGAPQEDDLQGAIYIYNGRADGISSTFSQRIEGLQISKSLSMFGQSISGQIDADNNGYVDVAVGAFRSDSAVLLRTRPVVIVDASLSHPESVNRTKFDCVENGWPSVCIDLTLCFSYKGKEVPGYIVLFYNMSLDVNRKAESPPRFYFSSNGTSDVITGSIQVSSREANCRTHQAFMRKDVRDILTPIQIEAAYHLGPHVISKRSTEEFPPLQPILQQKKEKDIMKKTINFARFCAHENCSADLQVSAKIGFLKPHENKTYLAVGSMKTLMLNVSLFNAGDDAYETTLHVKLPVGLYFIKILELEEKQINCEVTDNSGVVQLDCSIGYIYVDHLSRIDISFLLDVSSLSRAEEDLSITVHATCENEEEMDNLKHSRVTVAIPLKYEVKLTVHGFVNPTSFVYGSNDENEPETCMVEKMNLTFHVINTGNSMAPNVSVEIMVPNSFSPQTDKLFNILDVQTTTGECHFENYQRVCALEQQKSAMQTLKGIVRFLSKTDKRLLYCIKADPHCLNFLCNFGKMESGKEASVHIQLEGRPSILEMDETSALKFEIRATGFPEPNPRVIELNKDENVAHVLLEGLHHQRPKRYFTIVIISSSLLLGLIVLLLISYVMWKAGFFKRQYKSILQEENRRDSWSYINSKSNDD
T1 sequence (P26010 20-798): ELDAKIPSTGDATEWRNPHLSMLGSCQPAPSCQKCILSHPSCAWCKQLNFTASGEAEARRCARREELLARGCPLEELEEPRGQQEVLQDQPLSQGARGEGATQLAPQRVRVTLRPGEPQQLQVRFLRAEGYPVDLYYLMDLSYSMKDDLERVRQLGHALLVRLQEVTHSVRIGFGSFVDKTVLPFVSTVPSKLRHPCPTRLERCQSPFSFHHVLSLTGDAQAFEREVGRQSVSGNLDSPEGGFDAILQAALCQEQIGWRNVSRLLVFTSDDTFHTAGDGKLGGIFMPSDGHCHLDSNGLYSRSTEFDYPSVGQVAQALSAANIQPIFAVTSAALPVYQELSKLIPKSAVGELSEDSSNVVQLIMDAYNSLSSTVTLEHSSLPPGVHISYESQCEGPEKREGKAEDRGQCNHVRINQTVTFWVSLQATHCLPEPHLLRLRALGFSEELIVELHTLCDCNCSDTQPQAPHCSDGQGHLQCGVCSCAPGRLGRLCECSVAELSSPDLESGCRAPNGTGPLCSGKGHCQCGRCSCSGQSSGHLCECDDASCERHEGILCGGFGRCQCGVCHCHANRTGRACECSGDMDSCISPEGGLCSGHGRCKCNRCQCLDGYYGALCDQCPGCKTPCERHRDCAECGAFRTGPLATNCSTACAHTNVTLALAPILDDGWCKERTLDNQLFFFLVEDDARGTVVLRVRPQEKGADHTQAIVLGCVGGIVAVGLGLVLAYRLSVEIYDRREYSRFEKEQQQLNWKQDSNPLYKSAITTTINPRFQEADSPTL
Assay: VCAM antagonistic activity (VCAM-1/α4β7 binding assay), RPMI-8866 cell adhesion
Format: cell-based
Conditions: recombinant human VCAM-1, 4 mM MnCl2, read-out: VCAM/α 4 β 7 antagonistic activity to integrin (IC50)
Procedure: (Test Example) VCAM Antagonistic Activity (VCAM-1/α4β7 Binding Assay):
The capacity of a test substance antagonistic to the binding of lymphoma cell strain RPMI-8866 of human B cells, known to express integrin α4β7, with VCAM-1 was determined.
100 μl/well of a solution (500 ng/ml ) of recombinant human VCAM-1 (R & D systems) diluted with buffer A (0.1 M NaHCO3, pwH 9.6) was added to a micro titer plate having 96 wells (Nunc Maxisorp). After the incubation at 4° C. overnight, unbound VCAM-1 was removed by once washing with PBS. After completion of the washing, a buffer (buffer B) obtained by diluting Block Ace® (Dainippon Pharmaceutical Co., Ltd.) with PBS to 1/4 concentration was added in an amount of 150 μl/well. After the incubation at room temperature for 1 hour, buffer B was removed and the plate was washed with PBS once.
RPMI-8866 cells were incubated in Dulbecco modified Eagle medium containing 10 μg/ml of Calcein-AM (Wako Pure Chemical Industries, Ltd.) (SIGMA, hereinafter referred to as “DMEM”) at 37° C. for 30 minutes to label them with fluorescence. The cells were again suspended in a binding buffer (DMEM containing 20 mM HEPES, 0.1% BSA) containing 4 mM of MnCl2.
50 μl of a test substance of various concentrations obtained by the dilution with the binding buffer was added to the plate. Immediately thereafter, 50 μl (final volume: 100 μl/well) of the fluorescent RPMI-8866 cells (4×10^6 cells/ml) were added thereto, and they were incubated at room temperature for 30 minutes. After the shaking on a plate shaker (IKA MTS-4) at 800 rpm for 30 seconds, the solution was immediately removed to remove the unbound cells. The fluorescence quantity of the bound cells remaining in the wells was determined with a fluorescent plate reader (Wallac 1420 ARVO multi-label counter) (filter excitation wave length: 485 nml, emission wave length: 535 nm). The fluorescent strength thus obtained is proportional to the number of RPMI-8866 cells bound to VCAM-1 and remaining on the plate. The binding rate of each test material in various concentrations was determined while the fluorescent strength of the test material-free well was determined to be 100%. The concentration IC50 for the 50% binding inhibition was calculated.

SMILES | IC50 [nM]
O=C(O)[C@H](Cc1ccc(OCc2c(Cl)cccc2Cl)cc1)NC(=O)[C@H]1CC[C@H](C(=O)O)CC1 [Example 2, N-(Trans-4-carboxycyclohexane-1-carbonyl)-O-(2,6-dichlorobenzyl)-L-tyrosine] | ≤ 200
O=C(O)[C@H](Cc1ccc(OCc2c(Cl)cccc2Cl)cc1)NC(=O)[C@H]1CC[C@H](C(=O)NNc2ccccc2)CC1 [Example 3, N-(Trans-4-phenylhydrazinocarbonylcyclohexane-1-carbonyl)-O-(2,6-dichlorobenzyl)-L-tyrosine] | ≤ 200
O=C(O)[C@H](Cc1ccc(OCc2c(Cl)cccc2Cl)cc1)NC(=O)[C@H]1CC[C@H](C(=O)NNc2ccc(Br)cc2)CC1 [Example 4, N-[Trans-4-(4-bromophenylhydrazinocarbonyl)cyclohexane-1-carbonyl]-O-(2,6-dichlorobenzyl)-L-tyrosine] | 200 to 1000
O=C(O)[C@H](Cc1ccc(OCc2c(Cl)cccc2Cl)cc1)NC(=O)[C@H]1CC[C@H](C(=O)NCc2ccccc2)CC1 [Example 6] | 1000 to 5000
COc1ccc(NNC(=O)[C@H]2CC[C@H](C(=O)N[C@@H](Cc3ccc(OCc4c(Cl)cccc4Cl)cc3)C(=O)O)CC2)cc1 [Example 14] | ≤ 200
Cc1ccc(NNC(=O)[C@H]2CC[C@H](C(=O)N[C@@H](Cc3ccc(OCc4c(Cl)cccc4Cl)cc3)C(=O)O)CC2)cc1 [Example 34] | ≤ 200
O=C(O)[C@H](Cc1ccc(OCc2c(Cl)cccc2Cl)cc1)NC(=O)[C@H]1CC[C@H](C(=O)NNc2ccc(OC(F)(F)F)cc2)CC1 [Example 35] | ≤ 200

Now from value to molecule:

IC50 [nM] | SMILES
≤ 200 | COc1cccc(NNC(=O)[C@H]2CC[C@H](C(=O)N[C@@H](Cc3ccc(OCc4c(Cl)cccc4Cl)cc3)C(=O)O)CC2)c1 [Example 44]
≤ 200 | O=C(Nc1ccc(C[C@H](NC(=O)[C@H]2CC[C@H](C(=O)O)CC2)C(=O)O)cc1)c1snnc1-c1ccccc1 [Example 45, N-(Trans-4-carboxycyclohexane-1-carbonyl)-4-{[(4-phenyl-1,2,3-thiadiazole-5-yl)carbonyl]amino}-L-phenylalanine]
≤ 200 | COc1ccc(NNC(=O)[C@H]2CC[C@H](C(=O)N[C@@H](Cc3ccc(NC(=O)c4snnc4-c4ccccc4)cc3)C(=O)O)CC2)cc1 [Example 46, N-[Trans-4-(4-methoxyphenylhydrazinocarbonyl)cyclohexane-1-carbonyl]-4-{[(4-phenyl-1,2,3-thiadiazole-5-yl)carbonyl]amino}-L-phenyl-alanine]
≤ 200 | COc1cccc(OC)c1-c1ccc(C[C@H](NC(=O)[C@H]2CC[C@H](C(=O)O)CC2)C(=O)O)cc1 [Example 50, N-(Trans-4-carboxycyclohexane-1-carbonyl)-4-(2,6-dimethoxyphenyl)-L-phenylalanine]
≤ 200 | COc1ccc(NNC(=O)[C@H]2CC[C@H](C(=O)N[C@@H](Cc3ccc(-c4c(OC)cccc4OC)cc3)C(=O)O)CC2)cc1 [Example 51, N-[Trans-4-(4-methoxyphenylhydrazinocarbonyl)cyclohexane-1-carbonyl]-4-(2,6-dimethoxyphenyl)-L-phenylalanine]
